From US20040209897A1 (Pharmacia Corporation, priority 2002, published 2004) come the findings set out here.

What is called IC50 is the point on the concentration scale where inhibition reaches its midpoint.

The assay concerns the target Recombinant MAPKAPK2 (MK-2) (Homo sapiens, UniProt P49137). As to the kind of experiment: Determination of MK-2 IC50 (HSP-peptide phosphorylation, anion exchange resin capture assay). In kind it is biochemical.
The mark [1] stands for this setting: MAPKAP2 Avg. IC50, MK-2 inhibiting activity, Table I.

Structures can show the parent of a compound that is named as a salt.

Recombinant MAPKAPK2 (MK-2), sequence (P49137 whole entry, species assumed): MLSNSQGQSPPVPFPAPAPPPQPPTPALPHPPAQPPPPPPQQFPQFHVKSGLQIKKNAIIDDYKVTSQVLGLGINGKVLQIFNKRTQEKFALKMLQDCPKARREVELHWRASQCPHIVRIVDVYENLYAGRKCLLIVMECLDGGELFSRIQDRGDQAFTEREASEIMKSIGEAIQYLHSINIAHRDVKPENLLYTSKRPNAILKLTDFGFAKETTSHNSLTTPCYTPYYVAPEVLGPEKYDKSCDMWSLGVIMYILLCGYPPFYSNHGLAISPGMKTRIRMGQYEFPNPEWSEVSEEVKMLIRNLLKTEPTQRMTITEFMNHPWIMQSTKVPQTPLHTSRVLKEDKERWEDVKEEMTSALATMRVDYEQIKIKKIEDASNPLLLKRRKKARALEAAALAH
Description: The phosphorylation of HSP-peptide ([sequence]) by MAPKAPK2 was measured using an anion exchange resin capture assay method. […] The reaction was terminated and [γ^33P]ATP was removed from solution by the addition of 150 μl of AG 1×8 ion exchange resin in 900 mM sodium formate pH 3.0. A 50 μl aliquot of head volume was removed from the quenched reaction mixture and added to a 96-well plate, 150 μl of Microscint-40 (Packard) was added and the amount of phosphorylated-peptide was determined.
Compounds are evaluated as potential inhibitors of the MK2 kinase by measuring their effects on MK2 phosphorylation of the peptide substrate. Compounds may be screened initially at two concentrations prior to determination of IC50 values. Screening results are expressed as percent inhibition at the concentrations of compound tested. For IC50 value determinations, compounds are tested at six concentrations in ten-fold serial dilutions with each concentration tested in triplicate. Results are expressed as IC50 values in micromolar. The assay is performed at a final concentration of 2% DMSO.

Turning to `CN(C)C/C=C/C(=O)NCc1cccc(-c2cc(-c3cc4c([nH]3)CCNC4=O)ccn2)c1` [Example 465], the 50% inhibitory concentration (IC50) (MAPKAP2 Avg. IC50) was 118 nM. For the compound `O=C1NCCc2[nH]c(-c3ccnc(-c4ccc(CCc5ccc(F)cc5)nc4)c3)cc21` [Example 345, trifluoroacetate], the half-maximal inhibitory concentration (IC50) (MAPKAP2 Avg. IC50) turned out to be 66.1 nM. On the same count and under the same terms, as for `O=C1NCC(c2ccccc2)c2[nH]c(-c3ccnc(-c4cnc5ccccc5c4)c3)cc21` (stereo not drawn) [Example 768, 7-phenyl-2-(2-quinolin-3-ylpyridin-4-yl)-1,5,6,7-tetrahydro-4H-pyrrolo[3,2-c]pyridin-4-one trifluoroacetate], the figure is 7980 nM; as for `O=C1NC(C2CC2)Cc2[nH]c(-c3ccnc(-c4cccc(NC(=O)C5CCCC5)c4)c3)cc21` (stereo not drawn) [Example 634, trifluoroacetate], 509 nM. As for `O=Cc1cccc(-c2cc(-c3cc4c([nH]3)CCNC4=O)ccn2)c1` [Example 204, trifluoroacetate], the IC50 (MAPKAP2 Avg. IC50) stood at 35.5 nM. Take `O=C1NCCc2[nH]c(-c3ccnc(/C=C/c4cc(F)ccc4F)c3)cc21` [Example 196, trifluoroacetate]: the IC50 (MAPKAP2 Avg. IC50) is 33.6 nM. Same read-out and setting: in the case of `Cn1c(-c2ccnc(-c3cnc4ccccc4c3)c2)cc2c1CCNC2=O` [Example 750, 1-methyl-2-(2-quinolin-3-ylpyridin-4-yl)-1,5,6,7-tetrahydro-4H-pyrrolo[3,2-c]pyridin-4-one] it was 4130 nM. For the compound `O=C(O)c1ccc(-c2cc(-c3cc4c([nH]3)CCNC4=O)c(F)cn2)cc1` [Example 28], where the note is “MAPKAP2 Avg. IC50”, the half-inhibitory concentration (IC50) amounted to 10.1 nM. For the compound `CC(=O)c1cccc(-c2cc(-c3cc4c([nH]3)CCNC4=O)c(F)cn2)c1` [Example 159, trifluoroacetate], the IC50 (MAPKAP2 Avg. IC50) turned out to be 28.3 nM.

Turning to `O=C1NCCc2[nH]c(-c3ccnc(/C=C\Cc4ccccc4)c3)cc21` [Example 749, trifluoroacetate], for the setting “MAPKAP2 Avg. IC50”, the half-inhibitory concentration (IC50) worked out at 3750 nM. Regarding `N/N=C(\c1ccccc1)c1cc(-c2cc3c([nH]2)CCNC3=O)ccn1` [Example 786, 2-{2-[(E)-hydrazono(phenyl)methyl]pyridin-4-yl}-1,5,6,7-tetrahydro-4H-pyrrolo[3,2-c]pyridin-4-one trifluoroacetate], the IC50 (MAPKAP2 Avg. IC50) turned out to be 14300 nM. Take `Cc1cc(C)c(/C=C\c2cc(-c3cc4c([nH]3)CCNC4=O)ccn2)cc1C` [Example 604, trifluoroacetate]: the IC50 (MAPKAP2 Avg. IC50) is 354 nM.

Take `NCCc1[nH]c(-c2ccnc(NN)c2)cc1C(=O)NN` [Example 817, 2-(2-aminoethyl)-5-(2-hydrazinopyridin-4-yl)-1H-pyrrole-3-carbohydrazide]: under setting [1], the 50% inhibitory concentration (IC50) was 20000 nM. As for `CN(C)S(=O)(=O)c1ccc(-c2cc(-c3cc4c([nH]3)CCNC4=O)ccn2)cc1` [Example 470], the 50% inhibitory concentration (IC50) (MAPKAP2 Avg. IC50) amounted to 120 nM. `CCc1ccc(-c2cc(-c3cc4c([nH]3)CCNC4=O)ccn2)cc1` [Example 434, trifluoroacetate]: the half-maximal inhibitory concentration (IC50) (MAPKAP2 Avg. IC50) came out at 101 nM. As to `C=CC(=O)N(CCNC(=O)OC(C)(C)C)c1ccc(-c2cc(-c3cc4c([nH]3)CCNC4=O)ccn2)cn1` [Example 732, trifluoroacetate], the half-maximal inhibitory concentration (IC50) (MAPKAP2 Avg. IC50) worked out at 2330 nM.

`C=CC(=O)Nc1cccc(-c2cc(-c3cc4c([nH]3)CCNC4=O)ccn2)c1` [N-[3-[4-(4-oxo-4,5,6,7-tetrahydro-1H-pyrrolo[3,2-c]pyridin-2-yl)pyridin-2-yl]phenyl}acrylamide]: the “kind of MK-2 inhibition (irreversible)” value is reported as “irreversible inhibitor”. For the compound `CC(C)C(=O)Nc1ccc(-c2cc(-c3cc4c([nH]3)CCNC4=O)ccn2)cc1` [Example 88, trifluoroacetate], the IC50 (MAPKAP2 Avg. IC50) is 19.5 nM.

As for `CC(=NO)c1ccc(-c2cc(-c3cc4c([nH]3)CCNC4=O)ccn2)cc1` [Example 349, trifluoroacetate], the IC50 (MAPKAP2 Avg. IC50) was found to be 66.7 nM. Still for that read-out and setting: as for `O=C1NCCc2[nH]c(-c3ccnc(/C=C/c4c(Cl)cccc4N4CCOCC4)c3)cc21` [Example 715, trifluoroacetate], the figure is 1800 nM; as for `O=C(CCl)Nc1cccc(-c2cc(-c3cc4c([nH]3)CCNC4=O)ccn2)c1` [Example 401, trifluoroacetate], 87.5 nM; as for `C[C@@H]1CN(c2ccccc2/C=C/c2cc(-c3cc4c([nH]3)CCNC4=O)ccn2)C[C@H](C)O1` [Example 766, 2-[2-((E)-2-{2-[(2R,6S)-2,6-dimethylmorpholin-4-yl]phenyl}vinyl)pyridin-4-yl]-1,5,6,7-tetrahydro-4H-pyrrolo[3,2-c]pyridin-4-one trifluoroacetate], 7540 nM. As for `O=C(NC1CCCCC1)c1ccc(-c2cc(-c3cc4c([nH]3)CCNC4=O)ccn2)c(F)c1` [Example 391, trifluoroacetate], for the setting “MAPKAP2 Avg. IC50”, the 50% inhibitory concentration (IC50) was determined as 83.1 nM. Consider `O=C1NCCc2[nH]c(-c3ccnc(/C=C/c4ccccc4-c4ccccc4)c3)cc21` [Example 670, trifluoroacetate], for which the IC50 (MAPKAP2 Avg. IC50) was 816 nM.

As for `O=C1NCCc2[nH]c(-c3ccnc(/C=C/c4ccc(N5CCOCC5)c(F)c4)c3)cc21` [Example 156, trifluoroacetate], the IC50 (MAPKAP2 Avg. IC50) is 28.1 nM. As for `O=C1NCCc2[nH]c(-c3ccnc(-c4ccc5c(c4)OC=CO5)c3)cc21` [Example 62, trifluoroacetate], for the setting “MAPKAP2 Avg. IC50”, the IC50 is 16.4 nM. Consider `O=C1NCCc2[nH]c(-c3ccnc(-c4ccc(OCC(O)CN5CCC[C@@H]5CN5CCCC5)cc4)c3)cc21` (stereo partly drawn) [Example 508, 2-[2-(4-{2-hydroxy-3-[(2R)-2-(pyrrolidin-1-ylmethyl)pyrrolidin-1-yl]propoxy}phenyl)pyridin-4-yl]-1,5,6,7-tetrahydro-4H-pyrrolo[3,2-c]pyridin-4-one trifluoroacetate], for which the half-maximal inhibitory concentration (IC50) (MAPKAP2 Avg. IC50) came to 149 nM. As for `O=C1NCCc2[nH]c(-c3ccnc(/C=C/c4ccc(-c5ccccc5)cc4)c3)cc21` [Example 639, trifluoroacetate], the IC50 (MAPKAP2 Avg. IC50) is 562 nM. As to `O=C1NCCc2cc(-c3cc(-c4cc5c([nH]4)CCNC5=O)ccn3)ccc21` [Example 161, trifluoroacetate], the IC50 (MAPKAP2 Avg. IC50) worked out at 28.6 nM. In the case of `CC1Cc2[nH]c(-c3ccnc(-c4ccc(N(C)C)nc4)c3)cc2C(=O)N1` (stereo not drawn) [Example 295, trifluoroacetate], the IC50 (MAPKAP2 Avg. IC50) worked out at 53.4 nM. As to `O=C1NCCc2[nH]c(-c3ccnc(/C=C/Cc4ccccc4)c3)cc21` [Example 713, trifluoroacetate], the IC50 (MAPKAP2 Avg. IC50) stood at 1760 nM. For `COCCN(C)c1ccccc1/C=C/c1cc(-c2cc3c([nH]2)CCNC3=O)ccn1` [Example 716, trifluoroacetate], the IC50 (MAPKAP2 Avg. IC50) was 1810 nM. Turning to `O=C1NCCc2[nH]c(-c3ccnc(/C=C/c4cccc(Oc5ccccc5)c4)c3)cc21` [Example 581, trifluoroacetate], the IC50 (MAPKAP2 Avg. IC50) turned out to be 295 nM. On to `CC(=O)c1ccc(-c2cc(-c3cc4c([nH]3)CCNC4=O)ccn2)cc1` [Example 280, trifluoroacetate], for which the concentration for half-maximal inhibition (IC50) (MAPKAP2 Avg. IC50) stood at 51.2 nM. `COC(=O)Nc1ccc(-c2cc(-c3cc4c([nH]3)CCNC4=O)ccn2)cc1` [Example 203, trifluoroacetate]: where the note is “MAPKAP2 Avg. IC50”, the IC50 was determined as 35.1 nM. Still for that read-out and setting: as for `O=C1NCCc2[nH]c(-c3ccnc(/C=C/c4ccccc4N4CCOCC4)c3)cc21` [Example 529, 2-{2-[(E)-2-(2-morpholin-4-ylphenyl)vinyl]pyridin-4-yl}-1,5,6,7-tetrahydro-4H-pyrrolo[3,2-c]pyridin-4-one trifluoroacetate], the figure is 171 nM. As to `O=C1NCCc2[nH]c(-c3ccnc(/C=C/c4ccc(C(F)(F)F)cc4F)c3)cc21` [Example 510, 2-(2-{(E)-2-[2-fluoro-4-(trifluoromethyl)phenyl]vinyl}pyridin-4-yl)-1,5,6,7-tetrahydro-4H-pyrrolo[3,2-c]pyridin-4-one trifluoroacetate], the 50% inhibitory concentration (IC50) (MAPKAP2 Avg. IC50) is 150 nM. With `COC(=O)N1CC(c2cc(-c3cc4c([nH]3)CCNC4=O)ccn2)=Cc2ccccc21` [Example 362, trifluoroacetate], the IC50 (MAPKAP2 Avg. IC50) turned out to be 73.8 nM. With `O=C1NCCc2[nH]c(-c3ccnc(/C=C/c4c(F)cccc4F)c3)cc21` [Example 59, trifluoroacetate], the concentration for half-maximal inhibition (IC50) (MAPKAP2 Avg. IC50) amounted to 16 nM. The same measure, in the same setting: in the case of `N#Cc1ccc(-c2cc(-c3cc4c([nH]3)CCNC4=O)ccn2)cc1` [Example 327, trifluoroacetate] it was 62.3 nM; in that of `CC(C)c1ccccc1/C=C/c1cc(-c2cc3c([nH]2)CCNC3=O)ccn1` [Example 599, trifluoroacetate], 342 nM; in that of `COc1ccc(/C=C/c2cc(-c3cc4c([nH]3)CCNC4=O)ccn2)cc1` [Example 170, trifluoroacetate], 29.6 nM. Regarding `C=C(C)C(=O)Nc1cccc(-c2cc(-c3cc4c([nH]3)CCNC4=O)ccn2)c1` [Example 287, trifluoroacetate], the IC50 (MAPKAP2 Avg. IC50) was found to be 52.5 nM. Still for that read-out and setting: as for `Cc1cncc(-c2cc(-c3cc4c([nH]3)CCNC4=O)ccn2)c1` [Example 111, trifluoroacetate], the figure is 22.5 nM; as for `COC(=O)c1ccc(-c2cc(-c3cc4c([nH]3)CCNC4=O)ccn2)cc1` [Example 105, trifluoroacetate], 22 nM.

For the compound `O=C(CCCOc1ccc(-c2cc(-c3cc4c([nH]3)CCNC4=O)ccn2)cc1)NCCN1CCOCC1` [Example 357, trifluoroacetate], the IC50 (MAPKAP2 Avg. IC50) worked out at 72.2 nM. Consider `CC(C)=NNc1cc(-c2cc3c([nH]2)CCNC3=O)ccn1` [Example 491], for which, where the note is “MAPKAP2 Avg. IC50”, the 50% inhibitory concentration (IC50) turned out to be 133 nM. Turning to `Cc1ccc(-c2cc(-c3cc4c([nH]3)CCNC4=O)ccn2)cc1F` [Example 150, trifluoroacetate], for the setting “MAPKAP2 Avg. IC50”, the IC50 worked out at 27.6 nM. Turning to `O=C1NCCc2[nH]c(-c3ccnc(/C=C\c4ccc(F)c(F)c4)c3)cc21` [Example 687, trifluoroacetate], for the setting “MAPKAP2 Avg. IC50”, the IC50 was determined as 1080 nM. In the case of `O=C1NCCc2[nH]c(-c3ccnc(-c4ccc([N+](=O)[O-])cc4)c3)cc21` [Example 587], the IC50 (MAPKAP2 Avg. IC50) worked out at 316 nM. As for `O=C1NCCc2[nH]c(-c3cc(F)nc(-c4ccccc4F)c3)cc21` [Example 802, 2-[2-fluoro-6-(2-fluorophenyl)pyridin-4-yl]-1,5,6,7-tetrahydro-4H-pyrrolo[3,2-c]pyridin-4-one trifluoroacetate], the IC50 under setting [1] came out at 20000 nM.
